Assay results taken from patent US7643943B2, “Methods for monitoring drug activities in vivo” (Wyeth LLC, priority 2003, dated 2010).

Tests used:
[1] = clinical; conditions: human, in vivo, iv
Text: The pharmacokinetics of CCI-779 is being studied in patients with cancer receiving CCI-779 either alone or in combination with other chemotherapeutic agents following intravenous administration. Intravenous dosage schedules previously investigated include a cyclical schedule (daily for 5 days every two weeks) and a once-weekly regimen. […] The following examples evaluated the safety, efficacy, and pharmacokinetic/pharmacodynamic relationship to clinical response of three doses of CCI-779, when administered to patients with advanced, refractory renal cell cancer (RCC).

[2] = clinical; conditions: human, in vivo
Method: (§1) In a randomized, double-blind, multicenter trial, once-weekly intravenous doses of 25-, 75-, or 250-mg of CCI-779 were administered to patients with advanced renal cancer that were either previously treated, or untreated and not appropriate candidates for high dose interlukin-2 therapy. Whole blood for CCI-779 and metabolite concentrations was drawn for population pharmacokinetic analysis, and Bayesian-predicted area under the concentration-time curves for parent drug (AUC), parent plus metabolite (AUCsum), and cumulative AUC and AUCsum were derived.
(§2) For CCI-779 clearance, factors for dose, attenuation of exposure with multiple-dose, and effect of body surface area were included.
(§3) The following examples were based on a randomized, double-blind, multicenter, outpatient phase 2 study of CCI-779 administered by 30 minute intravenous infusion (via an automatic dispensing pump) in patients with advanced RCC. Eligible patients were randomly assigned to treatment in a 1:1:1 ratio to receive 25 mg, 75 mg, or 250 mg of CCI-779 weekly until evidence of disease progression.
(§4) Full pharmacokinetic profiling was planned in a subset of patients, with remaining patients to provide sparse sampling.
(§5) The bioanalytical method for CCI-779 was performed using whole blood in a liquid chromatography/tandem mass spectrometry (LC/MS/MS) procedure with deuterated internal standard.
(§6) In order to characterize the pharmacokinetic profiles of patients providing sparse blood sampling, fully and sparsely sampled patient data were analyzed collectively using a population pharmacokinetic method and the NONMEM application (version 1.0, Revision 5.0 on Windows NT 4.0 computer with Pentium processor, NONMEM Project Group, University of California at San Francisco, Calif.). […] Data were therefore modeled separately and segregated by analyte into two separate data sets with dose, time/duration of administration, and demographic information. […] Construction of the NONMEM infile was performed using SAS (version 8.1) on a Sun Microsystems mainframe computer with Sun OS 5.8. […] In both cases, the model-derived value for AUC for a given patient and analyte were obtained from the quotient of CCI-779 Dose/Clearance (CL), in which CL was obtained from Bayesian estimation and the POSTHOC option of NONMEM.
(§7) During model building, an exponential error model was applied to the kinetic model.

[3] = human, in vivo
Method: as §1, §2, §3, §4, §5, §6, §7
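Wherever CL is given: population pharmacokinetic analysis in NONMEM of pooled full and sparse blood sampling from patients, exponential error on kinetic parameters, proportional residual error, bootstrap check over 1,000 resamples.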
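Wherever DE on CL (θ6), parameter estimate is given: population pharmacokinetic analysis in NONMEM of pooled full and sparse blood sampling from patients, exponential error on kinetic parameters, proportional residual error, bootstrap check over 1,000 resamples.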
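Wherever DE on V3 (θ7), parameter estimate is given: population pharmacokinetic analysis in NONMEM of pooled full and sparse blood sampling from patients, exponential error on kinetic parameters, proportional residual error, bootstrap check over 1,000 resamples.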
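Wherever Dose effect on CL (θ7), bootstrap sample median is given: population pharmacokinetic analysis in NONMEM of pooled full and sparse blood sampling from patients, exponential error on kinetic parameters, proportional residual error, bootstrap check over 1,000 resamples.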

half-life [1]: 60 to 70 h | clearance [2]: 33.2 mL/min | DE on CL (θ6), parameter estimate [3]: 0.422 | DE on V3 (θ7), parameter estimate [3]: 0.302 | Dose effect on CL (θ7), bootstrap sample median [3]: 0.412 | Dose effect on V3 (θ8), bootstrap sample median [3]: 0.231 | HCT effect on V3 (θ8), parameter estimate [3]: 0.719 | Hematocrit effect on V3 (θ9), bootstrap sample median [3]: 0.768 | Inter-Patient Variability % on CL [3]: 63.7% | Inter-Patient Variability % on Ka [3]: 34.6% | Inter-Patient Variability % on V2 [3]: 164% | Inter-Patient Variability % on V3 [3]: 22.8% | Intersubject variability on CL (ω^21), bootstrap sample median [3]: 0.545 | Intersubject variability on CL (ω^21), final model parameter estimate [3]: 0.406 | Intersubject variability on V2 (ω^22), bootstrap sample median [3]: 1.418 | Intersubject variability on V2 (ω^22), final model parameter estimate [3]: 2.72 | Intersubject variability on V3 (ω^23), final model parameter estimate [3]: 0.052 | Intersubject variability on ka (ω^24), bootstrap sample median [3]: 0.316 | Intersubject variability on ka (ω^24), final model parameter estimate [3]: 0.120 | Ka (θ5), parameter estimate [3]: 0.087 h⁻¹ | Proportional error (ε^2), bootstrap sample median [3]: 0.212 | Proportional error (ε^2), final model parameter estimate [3]: 0.0543 | Q (θ3), bootstrap sample median [3]: 27.5 L/h | V2 (θ2), bootstrap sample median [3]: 8.24 L | V3 (θ4), bootstrap sample median [3]: 11.6 L | V3 (θ4), parameter estimate [3]: 12.9 L | ka (θ5), bootstrap sample median [3]: 0.0616 h⁻¹ | Q (θ3), parameter estimate ([3]; iv): 44.1 L/h | V2 (θ2), parameter estimate ([3]; iv): 10.4 L | CL (θ1), parameter estimate ([3]; iv, 250 mg): 2.05 L/h
SMILES: CO[C@H]1C[C@@H]2CC[C@@H](C)[C@@](O)(O2)C(=O)C(=O)N2CCCC[C@H]2C(=O)O[C@H]([C@H](C)C[C@@H]2CC[C@@H](O)[C@H](OC)C2)CC(=O)[C@H](C)/C=C(\C)[C@@H](O)[C@@H](OC)C(=O)[C@H](C)C[C@H](C)/C=C/C=C/C=C/1C [sirolimus]
